Read-outs that look alike come from different tables or passages of the source.

The conditions of test [1]: in vivo; cited from earlier work.
The target in the next test is T1, CDK9/CycT1 (Homo sapiens, UniProt P50750).
T1 construct: Recombinant full-length His-tagged human CDK9 and CycT1; His; purchased Life Technologies PV4131; host or cells: insect cells
As to the kind of experiment: CDK9/CycT1 high ATP kinase assay (TR-FRET, 2 mM ATP). The class given is biochemical. To be noted: for IC50: 2 mM ATP, Method 1b, lower limit for IC50s about 1-2 nM; for Selectivity high ATP CDK9 over high ATP CDK2: IC50 (high ATP CDK2)/IC50 (high ATP CDK9): ratio from Methods 1b and 2b, minimal values for IC50s near the assay limit. Here is the method:
1b. CDK9/CycT1 High ATP Kinase Assay
CDK9/CycT1-inhibitory activity of compounds of the present invention at a high ATP concentration after preincubation of enzyme and test compounds was quantified employing the CDK9/CycT1 TR-FRET assay as described in the following paragraphs.
Recombinant full-length His-tagged human CDK9 and CycT1, expressed in insect cells and purified by Ni-NTA affinity chromatography, were purchased from Life Technologies (Cat. No PV4131). As substrate for the kinase reaction biotinylated peptide biotin-Ttds-YISPLKSPYKISEG (C-terminus in amide form) was used which can be purchased e.g. form the company JERINI peptide technologies (Berlin, Germany).
(§1) For the assay 50 nl of a 100 fold concentrated solution of the test compound in DMSO was pipetted into either a black low volume 384 well microtiter plate or a black 1536 well microtiter plate (both Greiner Bio-One, Frickenhausen, Germany), 2 μl of a solution of CDK9/CycT1 in aqueous assay buffer [50 mM Tris/HCl pH 8.0, 10 mM MgCl2, 1.0 mM dithiothreitol, 0.1 mM sodium ortho-vanadate, 0.01% (v/v) Nonidet-P40 (Sigma)] were added and the mixture was incubated for 15 min at 22° C. to allow pre-binding of the test compounds to the enzyme before the start of the kinase reaction. […] The concentration of CDK9/CycT1 was adjusted depending of the activity of the enzyme lot and was chosen appropriate to have the assay in the linear range, typical concentrations were in the range of 0.5 μg/ml. The reaction was stopped by the addition of 3 μl of a solution of TR-FRET detection reagents (0.33 μM streptavidine-XL665 [Cisbio Bioassays, Codolet, France] and 1.67 nM anti-RB(pSer807/pSer811)-antibody from BD Pharmingen [#558389] and 2 nM LANCE EU-W1024 labeled anti-mouse IgG antibody [Perkin-Elmer, product no. AD0077]) in an aqueous EDTA-solution (167 mM EDTA, 0.2% (w/v) bovine serum albumin in 100 mM HEPES pH 7.5).
(§2) The resulting mixture was incubated 1 h at 22° C. to allow the formation of complex between the phosphorylated biotinylated peptide and the detection reagents. Subsequently the amount of phosphorylated substrate was evaluated by measurement of the resonance energy transfer from the Eu-chelate to the streptavidine-XL. Therefore, the fluorescence emissions at 620 nm and 665 nm after excitation at 350 nm was measured in a TR-FRET reader, e.g. a Pherastar (BMG Labtechnologies, Offenburg, Germany) or a Viewlux (Perkin-Elmer). The ratio of the emissions at 665 nm and at […] was taken as the measure for the amount of phosphorylated substrate. The data were normalised (enzyme reaction without inhibitor=0% inhibition, all other assay components but no enzyme=100% inhibition).
On the technique in general: TR-FRET usually uses a lanthanide donor and a delayed reading to cut background.

A further test addresses T2, CDK2/CycE (Homo sapiens, UniProt P24941).
T2 construct: GST; purchased ProQinase GmbH (Freiburg, Germany); host or cells: insect cells (Sf9)
Description: CDK2/CycE high ATP kinase assay (TR-FRET, 2 mM ATP). The class given is biochemical. Conditions: Method 2b. Here is the method: 2b. CDK2/CycE High ATP Kinase Assay
CDK2/CycE-inhibitory activity of compounds of the present invention at 2 mM adenosine-tri-phosphate (ATP) was quantified employing the CDK2/CycE TR-FRET (TR-FRET=Time Resolved Fluorescence Energy Transfer) assay as described in the following paragraphs.
Recombinant fusion proteins of GST and human CDK2 and of GST and human CycE, expressed in insect cells (Sf9) and purified by Glutathion-Sepharose affinity chromatography, were purchase from ProQinase GmbH (Freiburg, Germany). As substrate for the kinase reaction biotinylated peptide biotin-Ttds-YISPLKSPYKISEG (C-terminus in amid form) was used which can be purchased e.g. form the company JERINI peptide technologies (Berlin, Germany).
as §1, with “CDK2/CycE” for “CDK9/CycT1”, “about 10 ng/ml.” for “in the range of 0.5 μg/ml.”, “(0.333” for “(0.33”, “AD0077, as an alternative a Terbium-cryptate-labeled anti-mouse IgG antibody from Cisbio Bioassays can be used])” for “AD0077])”
as §2

In another test the test system is A2780 cells. Description: Proliferation assay, A2780. The class given is cell-based, human. Conditions: 72-hour exposure, Cell Titre-Glo, read-out: Inhibition of A2780 cell proliferation IC50. Here is the method:
Cultivated tumour cells (HeLa, human cervical tumour cells, ATCC CCL-2; NCI-H460, human non-small cell lung carcinoma cells, ATCC HTB-177; DU 145, hormone-independent human prostate carcinoma cells, ATCC HTB-81; HeLa-MaTu-ADR, multidrug-resistant human cervical carcinoma cells, EPO-GmbH Berlin; Caco-2, human colorectal carcinoma cells, ATCC HTB-37; B16F10, mouse melanoma cells, ATCC CRL-6475) were plated at a density of 5,000 cells/well (DU145, HeLa-MaTu-ADR), 3,000 cells/well (NCI-H460, HeLa), 1,500 cells/well (Caco-2), or 1,000 cells/well (B16F10) in a 96-well multititer plate in 200 μL of their respective growth medium supplemented 10% fetal calf serum. After 24 hours, the cells of one plate (zero-point plate) were stained with crystal violet (see below), while the medium of the other plates was supplemented with the test substances in various concentrations (0 μM, as well as in the range of 0.0001-10 μM; the final concentration of the solvent dimethyl sulfoxide was adjusted to 0.1%) using a Hewlett-Packard HP D300 Digital Dispenser. The cells were incubated for 4 days in the presence of test substances. Cell proliferation was determined by staining the cells with crystal violet: the cells were fixed by adding 20 μl/measuring point of an 11% glutaric aldehyde solution for 15 minutes at room temperature. After three washing cycles of the fixed cells with water, the plates were dried at room temperature. The cells were stained by adding 100 μl/measuring point of a 0.1% crystal violet solution (pH 3.0). After three washing cycles of the stained cells with water, the plates were dried at room temperature. The dye was dissolved by adding 100 μl/measuring point of a 10% acetic acid solution. The extinction was determined by photometry at a wavelength of 595 nm. The change of cell number, in percent, was calculated by normalization of the measured values to the extinction values of the zero-point plate (=0%) and the extinction of the untreated ([…]) cells (=100%). The IC50 values (inhibitory concentration at 50% of maximal effect) were determined by means of a 4 parameter fit. A2780 human ovarian carcinoma cells (ECACC #93112519) and non-adherent MOLM-13 human acute myeloid leukemia cells (DSMZ ACC 554) were seeded at a density of 3,000 cell/well (A2780) or 5,000 cells/well (MOLM-13) in a 96-well multititer plate in 150 μL of growth medium supplemented 10% fetal calf serum. After 24 hours, cell viability of one plate (zero-point plate) was determined with the Cell Titre-Glo Luminescent Cell Viability Assay (Promega), while the medium of the other plates was supplemented with the test substances in various concentrations (0 μM, as well as in the range of 0.0001-10 μM; the final concentration of the solvent dimethyl sulfoxide was adjusted to 0.1%) using a Hewlett-Packard HP D300 Digital Dispenser. Cell viability was assessed after 72-hour exposure with the Cell Titre-Glo Luminescent Cell Viability Assay (Promega). IC50 values (inhibitory concentration at 50% of maximal effect) were determined by means of a 4 parameter fit on measurement data which were normalized to vehicle (DMSO) treated cells (=100%) and measurement readings taken immediately before compound exposure (=0%).

T1 sequence (P50750 whole entry): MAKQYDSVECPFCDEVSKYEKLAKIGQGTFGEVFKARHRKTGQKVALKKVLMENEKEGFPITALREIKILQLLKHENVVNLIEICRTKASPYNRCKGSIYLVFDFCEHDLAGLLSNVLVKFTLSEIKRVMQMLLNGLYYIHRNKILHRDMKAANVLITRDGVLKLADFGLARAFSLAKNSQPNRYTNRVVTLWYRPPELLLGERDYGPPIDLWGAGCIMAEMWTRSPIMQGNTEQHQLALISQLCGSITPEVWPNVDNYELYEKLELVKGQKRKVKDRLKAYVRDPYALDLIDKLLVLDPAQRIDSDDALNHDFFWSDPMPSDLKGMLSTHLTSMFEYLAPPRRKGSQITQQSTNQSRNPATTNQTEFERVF
T1 sequence (O60563 whole entry partner): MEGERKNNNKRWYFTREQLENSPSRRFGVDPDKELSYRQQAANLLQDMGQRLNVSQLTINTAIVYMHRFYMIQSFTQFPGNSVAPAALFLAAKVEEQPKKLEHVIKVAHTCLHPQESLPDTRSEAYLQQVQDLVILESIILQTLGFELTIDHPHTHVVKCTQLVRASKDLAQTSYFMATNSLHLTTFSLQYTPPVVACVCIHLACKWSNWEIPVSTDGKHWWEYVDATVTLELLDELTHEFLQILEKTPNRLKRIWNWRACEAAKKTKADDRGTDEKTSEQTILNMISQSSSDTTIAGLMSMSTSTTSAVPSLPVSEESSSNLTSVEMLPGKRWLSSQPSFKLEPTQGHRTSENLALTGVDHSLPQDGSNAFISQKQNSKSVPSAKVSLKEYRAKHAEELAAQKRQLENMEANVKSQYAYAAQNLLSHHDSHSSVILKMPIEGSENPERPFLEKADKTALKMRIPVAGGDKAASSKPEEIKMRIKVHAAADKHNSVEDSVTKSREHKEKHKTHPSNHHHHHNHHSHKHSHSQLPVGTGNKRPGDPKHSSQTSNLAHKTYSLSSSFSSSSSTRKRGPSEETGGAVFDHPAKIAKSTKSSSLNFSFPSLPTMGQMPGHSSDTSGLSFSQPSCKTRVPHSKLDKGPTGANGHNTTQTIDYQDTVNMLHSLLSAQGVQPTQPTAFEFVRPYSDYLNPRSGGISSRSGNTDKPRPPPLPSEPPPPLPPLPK

Regarding `C[N+]1(C)[C@@H]2C[C@@H](OC(=O)C(O)(c3cccs3)c3cccs3)C[C@H]1[C@@H]1O[C@@H]12` [tiotropium], the protection against bronchospasms result in test [1] was “more than 6 hours”.
With `CSCc1cc2nc(c1)OC(C)CCCOc1cc(ccc1F)-c1cc(ncc1F)N2` (racemic) [Example 11, (rac)-3,20-difluoro-14-methyl-10-[(methylsulfanyl)methyl]-13,18-dioxa-5,7,24-triazatetracyclo[17.3.1.1^2,6.1^8,12]pentacosa-1(23),2(25),3,5,8(24),9,11,19,21-nonaene], the IC50 at CDK9/CycT1 was 7 nM; at CDK2/CycE it was 4670 nM; in the test with A2780 cells (Homo sapiens, A2780, 72 h), 346 nM. Further, at CDK9/CycT1, the “Selectivity high ATP CDK9 over high ATP CDK2: IC50 (high ATP CDK2)/IC50 (high ATP CDK9)” value is recorded as 667.
As to `CC1CCCCOc2cc(ccc2F)-c2cc(ncc2F)Nc2cc(CS(C)(=O)=O)cc(n2)O1` (single isomer, unassigned) [Example 30, 3,21-difluoro-14-methyl-10-[(methylsulfonyl)methyl]-13,19-dioxa-5,7,25-triazatetracyclo[18.3.1.1^2,6.1^8,12]hexacosa-1(24),2(26),3,5,8(25),9,11,20,22-nonaene], the IC50 worked out at 3 nM on CDK9/CycT1, 3590 nM against CDK2/CycE and 55 nM with A2780 cells. In addition, the “Selectivity high ATP CDK9 over high ATP CDK2: IC50 (high ATP CDK2)/IC50 (high ATP CDK9)” value on CDK9/CycT1 was found to be 1196.

The values above are taken from patent publication US11254690B2, “PTEFb inhibiting macrocyclic compounds” (BAYER AKTIENGESELLSCHAFT, priority 2017, dated 2022).
